In BindingDB's records for doi:10.1016/s0968-0896(97)00172-7 (Universit&Agrave, 1997) one finds Ki data, which are given here for four molecules.

One assay concerns the target Adenosine receptor A2a (Rattus norvegicus, UniProt P30543).
For a further assay, the target named is T1, Adenosine receptor A1 (Rattus norvegicus, UniProt P25099).
T1 sequence (P25099 whole entry): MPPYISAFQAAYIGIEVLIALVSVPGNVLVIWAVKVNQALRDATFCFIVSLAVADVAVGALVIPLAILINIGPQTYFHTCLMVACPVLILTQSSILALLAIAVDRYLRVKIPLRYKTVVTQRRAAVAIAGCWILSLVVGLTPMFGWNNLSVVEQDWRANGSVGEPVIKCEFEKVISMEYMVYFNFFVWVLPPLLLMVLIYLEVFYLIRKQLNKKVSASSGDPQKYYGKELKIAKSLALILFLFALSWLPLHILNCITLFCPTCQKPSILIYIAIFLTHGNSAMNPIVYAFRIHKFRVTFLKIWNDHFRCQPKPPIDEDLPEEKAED

Sequence of Adenosine receptor A2a (P30543 whole entry): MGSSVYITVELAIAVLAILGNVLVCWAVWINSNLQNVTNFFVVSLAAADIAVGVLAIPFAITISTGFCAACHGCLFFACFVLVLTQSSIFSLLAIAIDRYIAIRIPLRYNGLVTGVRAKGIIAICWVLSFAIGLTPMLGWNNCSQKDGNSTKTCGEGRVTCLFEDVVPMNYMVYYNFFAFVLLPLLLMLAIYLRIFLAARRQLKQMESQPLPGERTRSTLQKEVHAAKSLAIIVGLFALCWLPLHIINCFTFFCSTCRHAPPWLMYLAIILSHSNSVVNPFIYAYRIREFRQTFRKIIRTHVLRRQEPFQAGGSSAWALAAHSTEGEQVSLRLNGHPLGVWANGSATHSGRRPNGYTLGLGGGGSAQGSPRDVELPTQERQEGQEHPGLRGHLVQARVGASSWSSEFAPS

What is called Ki is a dissociation constant, usually derived from enzyme kinetics or from competition with a known ligand. Regarding `CCNC(=O)[C@@H]1OC(n2cnc3c(N)nc(C#CC(O)c4ccccc4)nc32)[C@H](O)[C@@H]1O` (stereo partly drawn) [S-PHPNECA], the Ki at Adenosine receptor A2a came to 0.5 nM; at Adenosine receptor A1, 4 nM.

In the case of `CCNC(=O)[C@H]1OC(n2cnc3c(N)nc(C#CC(O)c4ccccc4)nc32)[C@@H](O)[C@H]1O` (stereo partly drawn) [5-[6-Amino-2-(3-hydroxy-3-phenyl-prop-1-ynyl)-purin-9-yl]-3,4-dihydroxy-tetrahydro-furan-2-carboxylic acid ethylamide], the Ki at Adenosine receptor A2a was 2.6 nM; on Adenosine receptor A1, 5.9 nM.

For `CCCCC#Cc1nc(N)c2ncn([C@@H]3O[C@H](C(=O)NCC)[C@H](O)C3O)c2n1` (stereo partly drawn) [(2S,3R,5R)-5-[6-amino-2-(hex-1-yn-1-yl)-9H-purin-9-yl]-N-ethyl-3,4-dihydroxyoxolane-2-carboxamide], the values for the Ki on Adenosine receptor A2a and at Adenosine receptor A1 were 2.2 nM and 130 nM, respectively.

On to `CCNC(=O)C1OC(n2cnc3c(N)nc(C#CC(O)c4ccccc4)nc32)C(O)C1O` (stereo not drawn) [R,S-PHPNECA], for which the Ki on Adenosine receptor A2a amounted to 0.9 nM; on Adenosine receptor A1 it was 2.5 nM.
